The record followed here is patent US8716293B2, “Macrocyclic integrase inhibitors” (Janssen R&D Ireland, priority 2010, dated 2014).

Data set [1] in a line: pharmacokinetic evaluation in the rat. It is filed as in vivo, male Sprague-Dawley rats. The conditions noted are these: intravenous bolus 2 mg/kg; for CLp: plasma clearance; for Vss: volume of distribution at steady-state; for t1/2: terminal phase elimination half-life. As for the experimental part:
For determining the pharmacokinetic properties in rat, each HIV integrase inhibitor was dissolved in PEG400/normal saline (70:30 (v/v)) at a nominal concentration of 1 mg/ml and administered (2 ml/kg) to male Sprague-Dawley rats (n=3 per test compound) as an intravenous bolus via a saphenous vein at a dose level of 2 mg/kg. […] Plasma was obtained by centrifugation and stored at −20° C. prior to analysis. Analysis was performed using liquid chromatography (LC) with tandem mass spectrometric detection (MS/MS) in positive ion mode. Each HIV integrase inhibitor was eluted from a reversed-phase column with a gradient of acetonitrile and water containing 0.1% (v/v) formic acid. At the time of analysis plasma samples (50 p. 1) were thawed and […] with 200 μl of acetonitrile containing 0.1% (v/v) formic acid and centrifuged. Aliquots of the supernatant (100 μl) were diluted with 200 μl of water containing 25% (v/v) methanol and 0.1% (v/v) formic acid and injected via an electrospray interface directly into the Mass Spectrometer. Calibration standards and quality controls were prepared in rat plasma at the same time as the samples and analyzed before and after the samples containing HIV integrase inhibitor. Non-compartmental pharmacokinetic analysis of the plasma concentration-time curves was performed using WinNonLin software to provide estimates of the plasma clearance (CLp), volume of distribution at steady-state (Vss) and terminal phase elimination half-life (t1/2).

For another data set, the system named is HIV-1 SDM strain N155H. Description: cell-based HIV-1 replication assay in MT4-LTR-EGFP cells, N155H mutant. The conditions noted are these: fold change in activity against N155H mutant compared to wild type HIV. The text has this: (§1) MT4-LTR-enhanced green fluorescent protein (EGFP) cells were obtained by transfecting MT4 cells with a selectable construct encompassing the coding sequences for the HIV LTR as a promoter for the expression of EGFP and subsequent selection of permanently transfected cells. MT4-cytomegalovirus (CMV)-EGFP cells were obtained by selection for permanently transformed MT4 cells with a CMV-EGFP reporter gene. Cell lines were maintained in RPMI 1640 medium supplemented with 10% heat-inactivated fetal calf serum, 2 mM L-glutamine, 0.1% NaHCO3, and antibiotics (0.02% gentamicin and 0.8% G418) and incubated in a humidified incubator with a 5% CO2 atmosphere at 37° C.
(§2) N155H and Q148R mutant Integrase coding sequences were constructed in the pUC19-5′HXB2D vector (XbaI-SalI fragment of pHXB2D), containing the HIV-1 clone HXB2D IN coding sequence, by using a QuikChange site-directed mutagenesis kit (Stratagene, La Jolla, Calif.) and HPLC-purified primers (Genset Oligos, La Jolla, Calif.). Altered plasmid sequences were confirmed by dideoxyribose sequencing. For generation of site-directed mutant (SDM) virus stocks, MT4 cells were subcultured at a density of 250,000 cells/ml on the day before transfection. Cells were pelleted and resuspended in phosphate-buffered saline at a concentration of 3.1×10^6 cells/ml. A 0.8-ml portion ([…]) was used for each transfection. Transfections were performed with a Bio-Rad Gene Pulser (Bio-Rad, Hercules, Calif.) with 0.4-cm electrode cuvettes (Bio-Rad). Cells were electroporated with 10 μg of SalI-linearized pUC19-3′HXB2D (SalI-XbaI fragment of pHXB2D) and 5 μg of SalI-digested SDM at 250 μF and 300 V, followed by a 30-min incubation at room temperature. Ten ml of fresh culture medium was then added to the suspension of transfected cells, and incubation was performed at 37° C. in a humidified atmosphere with 5% CO2. Cell cultures were monitored for the appearance of cytopathic effect (CPE).
(§3) The inhibitory antiviral activity of different compounds was determined in a cell-based HIV-1 replication assay. MT4-LTR-EGFP cells (150,000 cells/ml) were infected with HIV-1 (IIIB or SDM strains Q148R, N155H, or G140S-Q148H; multiplicity of infection [MOI] of 0.0025) in the presence or absence of inhibitor. After 3 days of incubation, the inhibition of HIV replication was quantified by measuring EGFP fluorescence, and expressed as the compound concentration required for 50% inhibition of HIV-1 replication in cell culture (EC50).

A further data set deals with HIV-1 SDM strain Q148R. Description: cell-based HIV-1 replication assay in MT4-LTR-EGFP cells, Q148R mutant. The conditions noted are these: fold change in activity against Q148R mutant compared to wild type HIV.
Description: as §1, §2, §3

A further data set relates to HIV-1 LAI (IIIB). As to the kind of experiment: antiviral assay in the presence of 50% human serum. It is filed as cell-based. The conditions noted are these: MT-4-LTR-EGFP cells, 4 days, resazurin cell viability. As for the experimental part:
For the antiviral assay in the presence of 50% human serum, MT-4-LTR-EGFP cells were infected with HIV-1 LAI (IIIB) at a MOI of 0.001 to 0.01 CCID50/cell in RPMI1640 medium. Following 1 h of incubation, cells were washed and plated into a 96-well plate containing serial dilutions of test compound in the presence of 10% fetal calf serum or 50% human serum. After 4 days of incubation, the EC50 in the presence of 50% human serum (EC50/HS) was determined by a cell viability assay using resazurin (as described by Fields, R. D., and M. V. Lancaster (1993) Am. Biotechnol. Lab. 11:48-50).
A general note: Resazurin is reduced to fluorescent resorufin, in cell work by metabolically active cells.

In data set [2] the test system is HIV-1 SDM strain G140S-Q148H. Description: cell-based HIV-1 replication assay in MT4-LTR-EGFP cells, G140S-Q148H mutant. The note with it: fold change in activity against G140S-Q148H mutant compared to wild type HIV.
Description: as §1, §2, §3

What is called Vss is the apparent volume that relates the amount in the body to the concentration in plasma or blood. As a reminder, the EC50 is the concentration that produces a half-maximal response. In data set [1], `CCN1C[C@H](C)n2c(c(O)c3c(=O)n4nc(c32)N(C)S(=O)(=O)CCCCNC(=O)c2cc(F)ccc2C4)C1=O` [Compound 22] had a CLp of 12 mL/min/kg and a Vss of 0.6 L/kg. The compound further gave an FC-N155H in the data set on HIV-1 SDM strain N155H of 6.0. The same compound displayed an FC-Q148R in the data set with HIV-1 SDM strain Q148R of 0.5. In addition, the half-maximal effective concentration (EC50) in the data set with HIV-1 LAI (IIIB) is 14 nM. Besides, the FC-G140S-Q148H in data set [2] was found to be 1.7.
Consider `CCN1C[C@H](C)n2c(c(O)c3c(=O)n4nc(c32)C(=O)N(C)CCCCCOc2cc(F)ccc2C4)C1=O` [Compound 31], for which, in data set [1], the CLp was 13 mL/min/kg, the t1/2 is 8.1 h and the distribution volume (Vss) turned out to be 6 L/kg. Besides, in the data set on HIV-1 SDM strain N155H, the FC-N155H was 4.6. For the same compound, the FC-Q148R with HIV-1 SDM strain Q148R is given as 0.6. The half-maximal effective concentration (EC50) with HIV-1 LAI (IIIB) was 21 nM. In addition, in data set [2], the FC-G140S-Q148H came out at 7.0.
Regarding `CCN1CCCCCOc2cc(F)c(Cl)cc2Cn2nc(c3c(c(O)c4n3[C@@H](C)CN(CC)C4=O)c2=O)C1=O` [Compound 33], in data set [1], the CLp turned out to be 11 mL/min/kg, the t1/2 is listed as 4.2 h and the Vss is 1.3 L/kg. The compound also returned an FC-N155H in the data set on HIV-1 SDM strain N155H of 5.1. The compound further yielded an FC-Q148R in the data set on HIV-1 SDM strain Q148R of 0.5. Also, in the data set with HIV-1 LAI (IIIB), the concentration for a half-maximal effect (EC50) was determined as 147 nM. The same compound displayed an FC-G140S-Q148H in data set [2] of 2.5.
As to `CCN1C[C@H](C)n2c(c(O)c3c(=O)n4nc(c32)C(=O)N(C)CCCCCOc2cc(F)c(F)cc2C4)C1=O` [Compound 34], the FC-N155H in the data set on HIV-1 SDM strain N155H was 7.4. The FC-Q148R in the data set with HIV-1 SDM strain Q148R was determined as 0.4. Also, in the data set on HIV-1 LAI (IIIB), the 50% effective concentration (EC50) was 18 nM. For the same compound, the FC-G140S-Q148H in data set [2] was 5.9.
Consider `CC(C)N1C[C@H](C)n2c(c(O)c3c(=O)n4nc(c32)C(=O)N(C)CCCCCOc2cc(F)ccc2C4)C1=O` [Compound 35], for which the FC-N155H with HIV-1 SDM strain N155H worked out at 4.8. The FC-Q148R in the data set with HIV-1 SDM strain Q148R is 0.4. Also, in the data set on HIV-1 LAI (IIIB), the concentration giving a half-maximal response (EC50) was determined as 30 nM. This compound came in with an FC-G140S-Q148H in data set [2] of 2.7.
For `C[C@H]1CN(C2CC2)C(=O)c2c(O)c3c(=O)n4nc(c3n21)C(=O)NCCCCCOc1cc(F)ccc1C4` [Compound 36], in that order: 5.8, 2.4, 18 nM and 60.1.
For `C[C@H]1CN(C2CC2)C(=O)c2c(O)c3c(=O)n4nc(c3n21)C(=O)N(C)CCCCCOc1cc(F)ccc1C4` [Compound 37], in that order: 8.8, 0.8, 22 nM and 109.5.
For `CCN1CCn2c(c(O)c3c(=O)n4nc(c32)C(=O)N(C)CCCCCOc2cc(F)ccc2C4)C1=O` [Compound 38], in that order: 6.8, 1.2, 29 nM and 106.3.
In the data set with HIV-1 SDM strain N155H, `CCN1C[C@H](C)n2c(c(O)c3c(=O)n4nc(c32)NCCCNC(=O)c2cc(F)ccc2C4)C1=O` [Compound 39] registered an FC-N155H of 4.6. In the data set with HIV-1 SDM strain Q148R, this compound returned an FC-Q148R of 1.1. Further, the half-maximal effective concentration (EC50) with HIV-1 LAI (IIIB) was found to be 3370 nM. The FC-G140S-Q148H in data set [2] is listed as 2.8.
The like results for `CCN1C[C@H](C)n2c(c(O)c3c(=O)n4nc(c32)NCCCCCNC(=O)c2cc(F)ccc2C4)C1=O` [Compound 40] were, in that order, 6.2, 0.4, 1100 nM and 3.1.
As for `CCN1C[C@H](C)n2c(c(O)c3c(=O)n4nc(c32)NCCCCCCNC(=O)c2cc(F)ccc2C4)C1=O` [Compound 41], in data set [1], the CLp amounted to 7 mL/min/kg, the t1/2 is 5.4 h and the distribution volume (Vss) was determined as 0.7 L/kg. In addition, in the data set on HIV-1 SDM strain N155H, the FC-N155H turned out to be 6.0. Also, in the data set on HIV-1 SDM strain Q148R, the FC-Q148R worked out at 0.4. The EC50 with HIV-1 LAI (IIIB) amounted to 1110 nM. In data set [2], this compound came in with an FC-G140S-Q148H of 2.8.
In turn, `CCN1C[C@H](C)n2c(c(O)c3c(=O)n4nc(c32)NCCCCCCN(C)C(=O)c2cc(F)ccc2C4)C1=O` [Compound 42] registered an FC-N155H in the data set with HIV-1 SDM strain N155H of 3.3. Also, the FC-Q148R in the data set on HIV-1 SDM strain Q148R was 0.5. Besides, the concentration for a half-maximal effect (EC50) in the data set on HIV-1 LAI (IIIB) was found to be 3170 nM. Moreover, in data set [2], the FC-G140S-Q148H is reported as 2.6.
The like results for `CCN1C[C@H](C)n2c(c(O)c3c(=O)n4nc(c32)N(C)CCCCCCNC(=O)c2cc(F)ccc2C4)C1=O` [Compound 43] were, in that order, 2.0, 0.5, 101 nM and 0.8.
In data set [1], `CCN1C[C@H](C)n2c(c(O)c3c(=O)n4nc(c32)N2CCN(CC2)C(=O)CCCCOc2cc(F)ccc2C4)C1=O` [Compound 45] showed a CLp of 8 mL/min/kg, a t1/2 of 4.2 h and a Vss of 0.9 L/kg. The FC-N155H with HIV-1 SDM strain N155H is 4.3. Besides, the FC-Q148R in the data set with HIV-1 SDM strain Q148R was determined as 0.8. In addition, the concentration for a half-maximal effect (EC50) in the data set with HIV-1 LAI (IIIB) is 6 nM. In data set [2], this compound registered an FC-G140S-Q148H of 1.6.
Turning to `CCN1C[C@H](C)n2c(c(O)c3c(=O)n4nc(c32)N(C)CCCCCCOc2cc(F)ccc2C4)C1=O` [Compound 46], in the data set with HIV-1 SDM strain N155H, the FC-N155H was found to be 40.8. Also, in the data set on HIV-1 SDM strain Q148R, the FC-Q148R was found to be 0.3. Moreover, the concentration giving a half-maximal response (EC50) in the data set with HIV-1 LAI (IIIB) came to 1490 nM. The compound also had an FC-G140S-Q148H in data set [2] of 3.6.
For `CCN1C[C@H](C)n2c(c(O)c3c(=O)n4nc(c32)N2CCN(CCCCOc3cc(F)ccc3C4)S2(=O)=O)C1=O` [Compound 47], in that order: 4.4, 0.7, 4 nM and 3.2.
The like results for `CCN1C[C@H](C)n2c(c(O)c3c(=O)n4nc(c32)N(C)S(=O)(=O)CC/C=C\COc2cc(F)ccc2C4)C1=O` [Compound 49] were, in that order, 5.3, 0.5, 8 nM and 1.6.
For `CCN1C[C@H](C)n2c(c(O)c3c(=O)n4nc(c32)N(C)S(=O)(=O)CCC/C=C\COc2cc(F)ccc2C4)C1=O` [Compound 50], in that order: 2.8, 0.3, 11 nM and 1.2.
In the case of `CCN1C[C@H](C)n2c(c(O)c3c(=O)n4nc(c32)N(C)S(=O)(=O)CCC/C=C/COc2cc(F)ccc2C4)C1=O` [Compound 51], the FC-N155H in the data set on HIV-1 SDM strain N155H is given as 9.6. This compound registered an FC-Q148R in the data set on HIV-1 SDM strain Q148R of 0.4. In addition, the half-maximal effective concentration (EC50) with HIV-1 LAI (IIIB) is 13 nM. Moreover, the FC-G140S-Q148H in data set [2] worked out at 3.4.
